Test results from ChEMBL document CHEMBL4190168 (Medchemcomm, 2016).

Experiments:
EA.hy 926 = test: Antiproliferative activity against human EAhy926 cells after 48 hrs by MTT assay; type: functional, cell-based; conditions: EA.hy 926, 48 h
[1] = Solubility of the compound in water; type: physicochemical

SMILES	IC50 (EA.hy 926) [µM]	solubility [1] [µg/mL]
COc1ccc(-c2nc(C=O)cc3c4ccccc4n(-c4ccccc4)c23)cc1	> 100	
Clc1ccc(-c2nc(CNCCCCCCNCc3cc4c5ccccc5n(Cc5ccccc5)c4c(-c4ccc(Cl)cc4)n3)cc3c4ccccc4n(Cc4ccccc4)c23)cc1	3.63	
COc1ccc(-c2nc(CNCCCCNCc3cc4c([nH]c5ccccc54)c(-c4ccc(OC)cc4)n3)cc3c2[nH]c2ccccc23)cc1	10.3	
CCCCn1c2ccccc2c2cc(C=O)nc(-c3ccc(Cl)cc3)c21	> 100	
c1ccc(Cn2c3ccccc3c3cc(CNCCCNCc4cc5c6ccccc6n(Cc6ccccc6)c5c(-c5ccccc5)n4)nc(-c4ccccc4)c32)cc1	> 20	
COc1ccc(-c2nc(CNCCCCCNCc3cc4c5ccccc5n(Cc5ccccc5)c4c(-c4ccc(OC)cc4)n3)cc3c4ccccc4n(Cc4ccccc4)c23)cc1	3.88	
COc1ccc(-c2nc(CNCCCCCNCc3cc4c5ccccc5n(C)c4c(-c4ccc(OC)cc4)n3)cc3c4ccccc4n(C)c23)cc1	1.1	
Cc1nc(CNCCCNCc2cc3c4ccccc4n(Cc4ccccc4)c3c(C)n2)cc2c3ccccc3n(Cc3ccccc3)c12.Cl		> 10000
CC(C)c1nc(CNCCCCCCNCc2cc3c4ccccc4n(Cc4ccccc4)c3c(C(C)C)n2)cc2c3ccccc3n(Cc3ccccc3)c12	2.03	
Cc1nc(CNCCCCNCc2cc3c4ccccc4n(Cc4ccccc4)c3c(C)n2)cc2c3ccccc3n(Cc3ccccc3)c12	3.18	
CCCCn1c2ccccc2c2cc(CNCCCCNCc3cc4c5ccccc5n(CCCC)c4c(-c4ccc(Cl)cc4)n3)nc(-c3ccc(Cl)cc3)c21	4.85	
Cc1nc(CNCCCCNCc2cc3c4ccccc4n(C)c3c(C)n2)cc2c3ccccc3n(C)c12.Cl		> 10000
Cl.Cn1c2ccccc2c2cc(CNCCCCCCNCc3cc4c5ccccc5n(C)c4c(-c4ccccc4)n3)nc(-c3ccccc3)c21		> 10000
Cc1nc(CNCCCCNCc2cc3c4ccccc4n(CC(C)C)c3c(C)n2)cc2c3ccccc3n(CC(C)C)c12.Cl		> 10000
Cc1nc(C=O)cc2c3ccccc3n(C)c12	> 100	
CCCCn1c2ccccc2c2cc(CNCCCCNCc3cc4c5ccccc5n(CCCC)c4c(C)n3)nc(C)c21	1.69	
Cn1c2ccccc2c2cc(C=O)nc(-c3ccccc3)c21	> 100	
CCCCn1c2ccccc2c2cc(CNCCCCNCc3cc4c5ccccc5n(CCCC)c4c(C)n3)nc(C)c21.Cl		> 10000
Cc1nc(CNCCCNCc2cc3c4ccccc4n(Cc4ccccc4)c3c(C)n2)cc2c3ccccc3n(Cc3ccccc3)c12	15.3	
Cn1c2ccccc2c2cc(CNCCCCNCc3cc4c5ccccc5n(C)c4c(-c4ccccc4)n3)nc(-c3ccccc3)c21	2.47	
Cc1nc(CNCCCCNCc2cc3c4ccccc4n(C)c3c(C)n2)cc2c3ccccc3n(C)c12	2.76	
CCn1c2ccccc2c2cc(CNCCCNCc3cc4c5ccccc5n(CC)c4c(-c4cc(OC)c(OC)c(OC)c4)n3)nc(-c3cc(OC)c(OC)c(OC)c3)c21	13.4	
COc1ccc(-c2nc(CNCCCCNCc3cc4c([nH]c5ccccc54)c(-c4ccc(OC)cc4)n3)cc3c2[nH]c2ccccc23)cc1.Cl		> 10000
CCCCn1c2ccccc2c2cc(CNCCCCNCc3cc4c5ccccc5n(CCCC)c4c(C(C)C)n3)nc(C(C)C)c21	2.38	
CCCCn1c2ccccc2c2cc(CNCCCNCc3cc4c5ccccc5n(CCCC)c4c(-c4ccc(Cl)cc4)n3)nc(-c3ccc(Cl)cc3)c21	> 20	
Cl.c1ccc(Cn2c3ccccc3c3cc(CNCCCCCCNCc4cc5c6ccccc6n(Cc6ccccc6)c5c(-c5ccccc5)n4)nc(-c4ccccc4)c32)cc1		> 10000

SMILES	IC50 (EA.hy 926) [µM]	solubility [1] [µg/mL]
Cc1nc(CNCCCCNCc2cc3c4ccccc4n(CC(C)C)c3c(C)n2)cc2c3ccccc3n(CC(C)C)c12	2.56	
CCCCCCn1c2ccccc2c2cc(C=O)nc(-c3ccc(OC)cc3)c21	> 100	
CCn1c2ccccc2c2cc(C=O)nc(-c3cc(OC)c(OC)c(OC)c3)c21	> 100	
Cc1nc(CNCCCCNCc2cc3c4ccccc4n(Cc4ccccc4)c3c(C)n2)cc2c3ccccc3n(Cc3ccccc3)c12.Cl		> 10000
COc1ccc(-c2nc(CNCCCCCNCc3cc4c5ccccc5n(C)c4c(-c4ccc(OC)cc4)n3)cc3c4ccccc4n(C)c23)cc1.Cl		> 10000
CCCCn1c2ccccc2c2cc(C=O)nc(C)c21	> 100	
Cc1nc(CNCCCCNCc2cc3c4ccccc4n(C(C)C)c3c(C)n2)cc2c3ccccc3n(C(C)C)c12.Cl		> 10000
COc1ccc(-c2nc(C=O)cc3c2[nH]c2ccccc23)cc1	> 100	
O=Cc1cc2c3ccccc3n(Cc3ccccc3)c2c(-c2ccc(Cl)cc2)n1	> 100	
COc1cc(-c2nc(C=O)cc3c4ccccc4n(CCCc4ccccc4)c23)cc(OC)c1OC	> 100	
CC(C)c1nc(C=O)cc2c3ccccc3n(Cc3ccccc3)c12	> 100	
COc1ccc(-c2nc(CNCCCCCCNCc3cc4c5ccccc5n(Cc5ccccc5)c4c(-c4ccc(OC)cc4)n3)cc3c4ccccc4n(Cc4ccccc4)c23)cc1.Cl		> 10000
CC(C)c1nc(CNCCCCCNCc2cc3c([nH]c4ccccc43)c(C(C)C)n2)cc2c1[nH]c1ccccc12.Cl		> 10000
Cc1nc(CNCCCCCCNCc2cc3c4ccccc4n(C)c3c(C)n2)cc2c3ccccc3n(C)c12	1.85	
COc1ccc(-c2nc(CNCCCCCCNCc3cc4c5ccccc5n(Cc5ccccc5)c4c(-c4ccc(OC)cc4)n3)cc3c4ccccc4n(Cc4ccccc4)c23)cc1	4.4	
Cc1nc(CNCCCNCc2cc3c4ccccc4n(CCCc4ccccc4)c3c(C)n2)cc2c3ccccc3n(CCCc3ccccc3)c12	9.87	
CCCCn1c2ccccc2c2cc(CNCCCCNCc3cc4c5ccccc5n(CCCC)c4c(C(C)C)n3)nc(C(C)C)c21.Cl		> 10000
Cc1nc(CNCCCCNCc2cc3c4ccccc4n(C(C)C)c3c(C)n2)cc2c3ccccc3n(C(C)C)c12	1.28	
CCCCn1c2ccccc2c2cc(CNCCCCCNCc3cc4c5ccccc5n(CCCC)c4c(C(C)C)n3)nc(C(C)C)c21.Cl		> 10000
COc1cc(-c2nc(CNCCCCCCNCc3cc4c5ccccc5n(CCCc5ccccc5)c4c(-c4cc(OC)c(OC)c(OC)c4)n3)cc3c4ccccc4n(CCCc4ccccc4)c23)cc(OC)c1OC	1.69	
Cc1nc(CNCCCNCc2cc3c4ccccc4n(Cc4cccc(Cl)c4)c3c(C)n2)cc2c3ccccc3n(Cc3cccc(Cl)c3)c12	11.1	
COc1ccc(-c2nc(CNCCCCCNCc3cc4c5ccccc5n(Cc5ccccc5)c4c(-c4ccc(OC)cc4)n3)cc3c4ccccc4n(Cc4ccccc4)c23)cc1.Cl		> 10000
CCCCn1c2ccccc2c2cc(CNCCCCCNCc3cc4c5ccccc5n(CCCC)c4c(C(C)C)n3)nc(C(C)C)c21	1.4	
CCCCCCn1c2ccccc2c2cc(CNCCCCCCNCc3cc4c5ccccc5n(CCCCCC)c4c(-c4ccc(OC)cc4)n3)nc(-c3ccc(OC)cc3)c21.Cl		> 10000
COc1ccc(-c2nc(C=O)cc3c4ccccc4n(C)c23)cc1	> 100	
Cc1nc(C=O)cc2c3ccccc3n(Cc3ccccc3)c12	> 100	

SMILES	IC50 (EA.hy 926) [µM]	solubility [1] [µg/mL]
Cc1nc(C=O)cc2c3ccccc3n(Cc3cccc(Cl)c3)c12	> 100	
Cc1nc(CNCCCNCc2cc3c4ccccc4n(CC(C)C)c3c(C)n2)cc2c3ccccc3n(CC(C)C)c12.Cl		> 10000
Cl.Cn1c2ccccc2c2cc(CNCCCCNCc3cc4c5ccccc5n(C)c4c(-c4ccccc4)n3)nc(-c3ccccc3)c21		> 10000
Cc1nc(CNCCCNCc2cc3c4ccccc4n(Cc4cccc(Cl)c4)c3c(C)n2)cc2c3ccccc3n(Cc3cccc(Cl)c3)c12.Cl		> 10000
Cc1nc(CNCCCNCc2cc3c4ccccc4n(CCCc4ccccc4)c3c(C)n2)cc2c3ccccc3n(CCCc3ccccc3)c12.Cl		> 10000
Cl.c1ccc(Cn2c3ccccc3c3cc(CNCCCNCc4cc5c6ccccc6n(Cc6ccccc6)c5c(-c5ccccc5)n4)nc(-c4ccccc4)c32)cc1		> 10000
O=Cc1cc2c3ccccc3n(Cc3ccccc3)c2c(-c2ccccc2)n1	> 100	
CC(C)c1nc(CNCCCNCc2cc3c4ccccc4n(Cc4ccccc4)c3c(C(C)C)n2)cc2c3ccccc3n(Cc3ccccc3)c12.Cl		> 10000
COc1ccc(-c2nc(CNCCCCNCc3cc4c5ccccc5n(C)c4c(-c4ccc(OC)cc4)n3)cc3c4ccccc4n(C)c23)cc1	2.94	
CC(C)c1nc(CNCCCNCc2cc3c4ccccc4n(Cc4ccccc4)c3c(C(C)C)n2)cc2c3ccccc3n(Cc3ccccc3)c12	13.5	
Cl.Clc1ccc(-c2nc(CNCCCCCNCc3cc4c5ccccc5n(Cc5ccccc5)c4c(-c4ccc(Cl)cc4)n3)cc3c4ccccc4n(Cc4ccccc4)c23)cc1		> 10000
COc1ccc(-c2nc(CNCCCCNCc3cc4c5ccccc5n(C)c4c(-c4ccc(OC)cc4)n3)cc3c4ccccc4n(C)c23)cc1.Cl		> 10000
CC(C)c1nc(CNCCCCCNCc2cc3c([nH]c4ccccc43)c(C(C)C)n2)cc2c1[nH]c1ccccc12	> 20	
Cc1nc(C=O)cc2c3ccccc3n(C(C)C)c12	> 100	
Cc1nc(CNCCCCCCNCc2cc3c4ccccc4n(C)c3c(C)n2)cc2c3ccccc3n(C)c12.Cl		> 10000
CC(C)c1nc(C=O)cc2c1[nH]c1ccccc12	> 100	
CCCCCCn1c2ccccc2c2cc(CNCCCCCCNCc3cc4c5ccccc5n(CCCCCC)c4c(-c4ccc(OC)cc4)n3)nc(-c3ccc(OC)cc3)c21	4.25	
CCn1c2ccccc2c2cc(CNCCCNCc3cc4c5ccccc5n(CC)c4c(-c4cc(OC)c(OC)c(OC)c4)n3)nc(-c3cc(OC)c(OC)c(OC)c3)c21.Cl		> 10000
c1ccc(Cn2c3ccccc3c3cc(CNCCCCCCNCc4cc5c6ccccc6n(Cc6ccccc6)c5c(-c5ccccc5)n4)nc(-c4ccccc4)c32)cc1	8.09	
CCCCn1c2ccccc2c2cc(C=O)nc(C(C)C)c21	> 100	
Clc1ccc(-c2nc(CNCCCCCNCc3cc4c5ccccc5n(Cc5ccccc5)c4c(-c4ccc(Cl)cc4)n3)cc3c4ccccc4n(Cc4ccccc4)c23)cc1	4.32	
Cc1nc(CNCCCNCc2cc3c4ccccc4n(CC(C)C)c3c(C)n2)cc2c3ccccc3n(CC(C)C)c12	11.8	
Cc1nc(C=O)cc2c3ccccc3n(CCCc3ccccc3)c12	> 100	
Cc1nc(C=O)cc2c3ccccc3n(CC(C)C)c12	> 100	
COc1ccc(/C=C\c2cc(OC)c(OC)c(OC)c2)cc1OP(=O)(O)O [FOSBRETABULIN]	6.4	
Cn1c2ccccc2c2cc(CNCCCCCCNCc3cc4c5ccccc5n(C)c4c(-c4ccccc4)n3)nc(-c3ccccc3)c21	1.61	
